System: 349418-098-R-PDC complex spheroid viability
Assay: Anticancer human tumor 349418-098-R-PDC patient-derived lung adenocarcinoma cell line growth inhibition [RAS]
Conditions: for IC50: curve of first compound; for viability, T/C: stronger effect = lower value
Method in brief: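 Agents were tested in combination matrices in half-log decrements from a top concentration at or near clinical Cmax (10 microM if undetermined). Targets were multi-cell spheroids of tumour lines plus HUVEC and MSC stromal cells.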
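Note: spheroids exposed to compound for seven days before viability readout.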

With `Cc1nc(N2CCC3(CC2)COC(C)C3N)c(CO)nc1Sc1ccnc(N)c1Cl` (centres undefined) + C#Cc1c(F)ccc2cc(O)cc(-c3ncc4c(N5CC6CCC(C5)N6)nc(OCC56CCCN5CC(F)C6)nc4c3F)c12 the IC50 (second compound 0.0316 µM) was greater than 10000 nM, the IC50 (second compound 0.1 µM) was greater than 10000 nM and the IC50 (second compound 0.316 µM) was greater than 10000 nM. The IC50 (second compound 1 µM) was greater than 10000 nM, the IC50 (second compound 3.16 µM) was greater than 10000 nM and the IC50 (second compound 10 µM) was greater than 10000 nM. It also gave a viability, T/C (second compound 0.0316 µM, first compound 0.0316 µM) of 102%, a viability, T/C (second compound 0.0316 µM, first compound 0.1 µM) of 108% and a viability, T/C (second compound 0.0316 µM, first compound 0.316 µM) of 105%. For the same compound, the viability, T/C (second compound 0.0316 µM, first compound 1 µM) was 63.1%, the viability, T/C (second compound 0.0316 µM, first compound 3.16 µM) was 86% and the viability, T/C (second compound 0.0316 µM, first compound 10 µM) was 71.2%. It also gave a viability, T/C (second compound 0.1 µM, first compound 0.0316 µM) of 112%, a viability, T/C (second compound 0.1 µM, first compound 0.1 µM) of 90.8% and a viability, T/C (second compound 0.1 µM, first compound 0.316 µM) of 98.2%. The viability, T/C (second compound 0.1 µM, first compound 1 µM) was 88.8%, the viability, T/C (second compound 0.1 µM, first compound 3.16 µM) was 108% and the viability, T/C (second compound 0.1 µM, first compound 10 µM) was 86%. The viability, T/C (second compound 0.316 µM, first compound 0.0316 µM) was 94.3%, the viability, T/C (second compound 0.316 µM, first compound 0.1 µM) was 88% and the viability, T/C (second compound 0.316 µM, first compound 0.316 µM) was 101%. The viability, T/C (second compound 0.316 µM, first compound 1 µM) was 104%, the viability, T/C (second compound 0.316 µM, first compound 3.16 µM) was 104% and the viability, T/C (second compound 0.316 µM, first compound 10 µM) was 67.3%. For the same compound, the viability, T/C (second compound 1 µM, first compound 0.0316 µM) was 89.4%, the viability, T/C (second compound 1 µM, first compound 0.1 µM) was 94.6% and the viability, T/C (second compound 1 µM, first compound 0.316 µM) was 87%. The viability, T/C (second compound 1 µM, first compound 1 µM) was 83.2%, the viability, T/C (second compound 1 µM, first compound 3.16 µM) was 111% and the viability, T/C (second compound 1 µM, first compound 10 µM) was 71.9%. For the same compound, the viability, T/C (second compound 3.16 µM, first compound 0.0316 µM) was 59.6%, the viability, T/C (second compound 3.16 µM, first compound 0.1 µM) was 108% and the viability, T/C (second compound 3.16 µM, first compound 0.316 µM) was 101%. For the same compound, the viability, T/C (second compound 3.16 µM, first compound 1 µM) was 62.2%, the viability, T/C (second compound 3.16 µM, first compound 3.16 µM) was 114% and the viability, T/C (second compound 3.16 µM, first compound 10 µM) was 80.3%. It also gave a viability, T/C (second compound 10 µM, first compound 0.0316 µM) of 75.4%, a viability, T/C (second compound 10 µM, first compound 0.1 µM) of 43.9% and a viability, T/C (second compound 10 µM, first compound 0.316 µM) of 70.3%. For the same compound, the viability, T/C (second compound 10 µM, first compound 1 µM) was 74.1%, the viability, T/C (second compound 10 µM, first compound 3.16 µM) was 73% and the viability, T/C (second compound 10 µM, first compound 10 µM) was 77%.

For `CCc1c2c(nc3ccc(O)cc13)-c1cc3c(c(=O)n1C2)COC(=O)[C@]3(O)CC` + C=CC(=O)N1CCN(c2nc(OCC3CCCN3C)nc3c(F)c(-c4nc(N)cc(C)c4C(F)(F)F)c(Cl)cc23)C(C)C1, the IC50 (second compound 0.00316 µM) was 0.951 nM, the IC50 (second compound 0.01 µM) was 1.8 nM and the IC50 (second compound 0.0316 µM) was 1.75 nM. For the same compound, the IC50 (second compound 0.1 µM) was 0.985 nM, the IC50 (second compound 0.316 µM) was 1.2 nM and the IC50 (second compound 1 µM) was 1.69 nM. The viability, T/C (second compound 0.00316 µM, first compound 0.000949 µM) was 50%, the viability, T/C (second compound 0.00316 µM, first compound 0.003 µM) was 28.8% and the viability, T/C (second compound 0.00316 µM, first compound 0.00949 µM) was 6.39%. It also gave a viability, T/C (second compound 0.00316 µM, first compound 0.03 µM) of 4.43%, a viability, T/C (second compound 0.00316 µM, first compound 0.0949 µM) of 3.41% and a viability, T/C (second compound 0.00316 µM, first compound 0.3 µM) of 2.43%. The viability, T/C (second compound 0.01 µM, first compound 0.000949 µM) was 69.1%, the viability, T/C (second compound 0.01 µM, first compound 0.003 µM) was 35% and the viability, T/C (second compound 0.01 µM, first compound 0.00949 µM) was 7.67%. It also gave a viability, T/C (second compound 0.01 µM, first compound 0.03 µM) of 4.23%, a viability, T/C (second compound 0.01 µM, first compound 0.0949 µM) of 2.64% and a viability, T/C (second compound 0.01 µM, first compound 0.3 µM) of 1.87%. It also gave a viability, T/C (second compound 0.0316 µM, first compound 0.000949 µM) of 70.9%, a viability, T/C (second compound 0.0316 µM, first compound 0.003 µM) of 31.7% and a viability, T/C (second compound 0.0316 µM, first compound 0.00949 µM) of 11.7%. The viability, T/C (second compound 0.0316 µM, first compound 0.03 µM) was 4.13%, the viability, T/C (second compound 0.0316 µM, first compound 0.0949 µM) was 2.62% and the viability, T/C (second compound 0.0316 µM, first compound 0.3 µM) was 2.07%. It also gave a viability, T/C (second compound 0.1 µM, first compound 0.000949 µM) of 50.8%, a viability, T/C (second compound 0.1 µM, first compound 0.003 µM) of 27.1% and a viability, T/C (second compound 0.1 µM, first compound 0.00949 µM) of 10.5%. It also gave a viability, T/C (second compound 0.1 µM, first compound 0.03 µM) of 4.6%, a viability, T/C (second compound 0.1 µM, first compound 0.0949 µM) of 3.02% and a viability, T/C (second compound 0.1 µM, first compound 0.3 µM) of 2.05%. It also gave a viability, T/C (second compound 0.316 µM, first compound 0.000949 µM) of 57.2%, a viability, T/C (second compound 0.316 µM, first compound 0.003 µM) of 21.9% and a viability, T/C (second compound 0.316 µM, first compound 0.00949 µM) of 7.59%. The viability, T/C (second compound 0.316 µM, first compound 0.03 µM) was 4.71%, the viability, T/C (second compound 0.316 µM, first compound 0.0949 µM) was 2.92% and the viability, T/C (second compound 0.316 µM, first compound 0.3 µM) was 1.94%. For the same compound, the viability, T/C (second compound 1 µM, first compound 0.000949 µM) was 73.1%, the viability, T/C (second compound 1 µM, first compound 0.003 µM) was 26.9% and the viability, T/C (second compound 1 µM, first compound 0.00949 µM) was 9.24%. The viability, T/C (second compound 1 µM, first compound 0.03 µM) was 5.15%, the viability, T/C (second compound 1 µM, first compound 0.0949 µM) was 3.55% and the viability, T/C (second compound 1 µM, first compound 0.3 µM) was 2.46%.

Source: PubChem BioAssay AID2060904 (Molecular Pharmacology Branch, DTP, NCI, 2025)
